Measurements reported in patent US20250134861A1, “COMPOSITIONS COMPRISING 5-METHOXY-N,N-DIMETHYLTRYPTAMINE (5-MEO-DMT) FOR USE IN TREATING MENTAL DISORDERS” (GH RESEARCH IRELAND LIMITED, priority 2019, published 2025).

Experiments:
[1] = tested on: patients with treatment-resistant major depressive disorder; assay: Clinical trial of inhaled 5-MeO-DMT in TRD patients: depression severity and psychiatric symptom scales
[2] = Clinical trial of inhaled 5-MeO-DMT in healthy volunteers: 5-MeO-DMT and bufotenine plasma levels; type: in vivo, human
Procedure: The trial consisted of two parts: Part A, where single doses of 5-MeO-DMT dosage amounts of 2 mg, 6 mg, 12 mg and 18 mg were administered; and Part B, where an initial 5-MeO-DMT dosage amount of 6 mg was administered, and then, unless the participant had already experienced a peak psychedelic experience based on the PPEQ or the supervising physician had decided that further dose increases were inappropriate based on observed side effects, further subsequent dosage amounts of 12 mg and 18 mg were administered with about 3 hours in between each administration. […] Pharmacokinetic analysis of 5-MeO-DMT and bufotenine plasma levels was performed at 1 hour and 3 hours after drug administration in Part A, and at 3 hours after drug administration in Part B.

[3] = tested on: patients with treatment-resistant major depressive disorder; assay: Clinical trial of inhaled 5-MeO-DMT in TRD patients: intensity of the psychedelic effects (MEQ30, ASC, PPEQ); type: in vivo, human; settings: single 12 mg inhaled dose
Procedure: The following questionnaire is applied in situations where the acute psychedelic experience after treatment with 5-MeO-DMT needs to be quantified. At the end of relevant treatment sessions, the patient is handed a paper form and asked to rate the degree to which at any time during that session they experienced any of the phenomena listed below using the scale listed below. The MEQ30 is then computed and the occurrence of a peak psychedelic experience is then evaluated as described under scoring instructions.
The score for each individual subscale is computed by calculating the average score (from the scale of 0 to 5) for the phenomena belonging to the subscale as listed below.
The MEQ30-total score is computed by taking the average response to all phenomena. Patients or probands with a score≥60% of the maximum possible score on each of the four subscales of the MEQ30 are considered to have experienced a “peak psychedelic experience”.
The Peak Psychedelic Experience Questionnaire (PPEQ) has been developed by the inventor as an improved alternative to the oceanic boundlessness dimension of the ASC and the MEQ30 to allow a simpler and quicker assessment of the intensity of a psychedelic experience.

[4] = tested on: patients with treatment-resistant major depressive disorder; assay: Clinical trial of inhaled 5-MeO-DMT in TRD patients: safety and tolerability; type: in vivo, human
[5] = tested on: respondents with self-reported psychiatric conditions; settings: majority of respondents; ritual or recreational use; observational; cited from earlier work
[6] = Patient 1, 2 h after single 12 mg inhaled dose, baseline 1
[7] = Patient 1, 2 h after single 12 mg inhaled dose, baseline 5
[8] = Patient 1, 1 d after single 12 mg inhaled dose, baseline 1
[9] = Patient 1, 1 d after single 12 mg inhaled dose, baseline 5
[10] = Patient 1, 7 d after single 12 mg inhaled dose, baseline 1
[11] = Patient 1, 7 d after single 12 mg inhaled dose, baseline 5
[12] = Patient 2, 2 h after single 12 mg inhaled dose, baseline 5
[13] = Patient 2, 1 d after single 12 mg inhaled dose, baseline 5
[14] = Patient 2, 7 d after single 12 mg inhaled dose, baseline 5
[15] = both patients, after single 12 mg inhaled dose
[16] = both patients, all assessment time points (2 h, 1 d, 7 d) after single 12 mg inhaled dose
[17] = both patients, single 12 mg inhaled dose

## COc1ccc2[nH]cc(CCN(C)C)c2c1 [5-MeO-DMT, 5-methoxy-N,N-dimethyltryptamine]
[1]; Patient 1, 2 h after single 12 mg inhaled dose
  PGI-I (7-point scale; 1, Very much improved; 2, Much improved; 7, Very much worse): 1
[1]; [6]
  BPRS Unusual thought content (1-7): 1
  MADRS suicidal thoughts item (0 to 6): 0
[1]; Patient 1, 2 h after single 12 mg inhaled dose, baseline 3
  BPRS Somatic concern (1-7): 2
[1]; Patient 1, 2 h after single 12 mg inhaled dose, baseline 4
  BPRS Tension (1-7): 3
[1]; [7]
  BPRS Guilt feelings (1-7): 1
  PGI-S (7-point scale; 1, Normal, not at all ill; 7, Extremely ill): 1
[1]; Patient 1, 2 h after single 12 mg inhaled dose, baseline 6
  BPRS Depressive Mood (1-7): 2
[1]; Patient 1, 2 h after single 12 mg inhaled dose, baseline 7
  BPRS Anxiety (1-7): 2
[1]; Patient 1, 2 h after single 12 mg inhaled dose, baseline 31, sleep item carried forward from baseline
  MADRS (overall score 0 to 60): 10
[1]; Patient 1, 2 h after single 12 mg inhaled dose, baseline 42
  BPRS (total, 18 symptoms each rated 1-7): 27
[1]; Patient 1, 2 h after single 12 mg inhaled dose, baseline Yes
  C-SSRS Suicidal Ideation (any of the suicidal ideation items present): No
[1]; Patient 1, 1 d after single 12 mg inhaled dose
  PGI-I (7-point scale; 1, Very much improved; 2, Much improved; 7, Very much worse): 1
[1]; [8]
  BPRS Unusual thought content (1-7): 1
  MADRS suicidal thoughts item (0 to 6): 0
[1]; Patient 1, 1 d after single 12 mg inhaled dose, baseline 3
  BPRS Somatic concern (1-7): 1
[1]; Patient 1, 1 d after single 12 mg inhaled dose, baseline 4
  BPRS Tension (1-7): 1
[1]; [9]
  BPRS Guilt feelings (1-7): 1
  PGI-S (7-point scale; 1, Normal, not at all ill; 7, Extremely ill): 1
[1]; Patient 1, 1 d after single 12 mg inhaled dose, baseline 6
  BPRS Depressive Mood (1-7): 1
[1]; Patient 1, 1 d after single 12 mg inhaled dose, baseline 7
  BPRS Anxiety (1-7): 1
[1]; Patient 1, 1 d after single 12 mg inhaled dose, baseline 31
  MADRS (overall score 0 to 60): 8
[1]; Patient 1, 1 d after single 12 mg inhaled dose, baseline 42
  BPRS (total, 18 symptoms each rated 1-7): 18
[1]; Patient 1, 1 d after single 12 mg inhaled dose, baseline Yes
  C-SSRS Suicidal Ideation (any of the suicidal ideation items present): No
[1]; Patient 1, 7 d after single 12 mg inhaled dose
  PGI-I (7-point scale; 1, Very much improved; 2, Much improved; 7, Very much worse): 1
[1]; [10]
  BPRS Unusual thought content (1-7): 1
  MADRS suicidal thoughts item (0 to 6): 0
[1]; Patient 1, 7 d after single 12 mg inhaled dose, baseline 3
  BPRS Somatic concern (1-7): 1
[1]; Patient 1, 7 d after single 12 mg inhaled dose, baseline 4
  BPRS Tension (1-7): 1
[1]; [11]
  BPRS Guilt feelings (1-7): 1
  PGI-S (7-point scale; 1, Normal, not at all ill; 7, Extremely ill): 1
[1]; Patient 1, 7 d after single 12 mg inhaled dose, baseline 6
  BPRS Depressive Mood (1-7): 1
[1]; Patient 1, 7 d after single 12 mg inhaled dose, baseline 7
  BPRS Anxiety (1-7): 1
[1]; Patient 1, 7 d after single 12 mg inhaled dose, baseline 31
  MADRS (overall score 0 to 60): 3
[1]; Patient 1, 7 d after single 12 mg inhaled dose, baseline 42
  BPRS (total, 18 symptoms each rated 1-7): 18
[1]; Patient 1, 7 d after single 12 mg inhaled dose, baseline Yes
  C-SSRS Suicidal Ideation (any of the suicidal ideation items present): No
[1]; Patient 2, 2 h after single 12 mg inhaled dose
  PGI-I (7-point scale; 1, Very much improved; 2, Much improved; 7, Very much worse): 2
[1]; Patient 2, 2 h after single 12 mg inhaled dose, baseline 1
  MADRS suicidal thoughts item (0 to 6): 0
[1]; Patient 2, 2 h after single 12 mg inhaled dose, baseline 3
  BPRS Tension (1-7): 1
[1]; Patient 2, 2 h after single 12 mg inhaled dose, baseline 4
  BPRS Somatic concern (1-7): 1
[1]; [12]
  BPRS Anxiety (1-7): 2
  BPRS Depressive Mood (1-7): 3
  BPRS Guilt feelings (1-7): 1
  PGI-S (7-point scale; 1, Normal, not at all ill; 7, Extremely ill): 1
[1]; Patient 2, 2 h after single 12 mg inhaled dose, baseline 6
  BPRS Unusual thought content (1-7): 1
[1]; Patient 2, 2 h after single 12 mg inhaled dose, baseline 33, sleep item carried forward from baseline
  MADRS (overall score 0 to 60): 9
[1]; Patient 2, 2 h after single 12 mg inhaled dose, baseline 45
  BPRS (total, 18 symptoms each rated 1-7): 26
[1]; Patient 2, 2 h after single 12 mg inhaled dose, baseline No
  C-SSRS Suicidal Ideation (any of the suicidal ideation items present): No
[1]; Patient 2, 1 d after single 12 mg inhaled dose
  PGI-I (7-point scale; 1, Very much improved; 2, Much improved; 7, Very much worse): 2
[1]; Patient 2, 1 d after single 12 mg inhaled dose, baseline 1
  MADRS suicidal thoughts item (0 to 6): 1
[1]; Patient 2, 1 d after single 12 mg inhaled dose, baseline 3
  BPRS Tension (1-7): 1
[1]; Patient 2, 1 d after single 12 mg inhaled dose, baseline 4
  BPRS Somatic concern (1-7): 1
[1]; [13]
  BPRS Anxiety (1-7): 1
  BPRS Depressive Mood (1-7): 1
  BPRS Guilt feelings (1-7): 1
  PGI-S (7-point scale; 1, Normal, not at all ill; 7, Extremely ill): 1
[1]; Patient 2, 1 d after single 12 mg inhaled dose, baseline 6
  BPRS Unusual thought content (1-7): 1
[1]; Patient 2, 1 d after single 12 mg inhaled dose, baseline 33
  MADRS (overall score 0 to 60): 5
[1]; Patient 2, 1 d after single 12 mg inhaled dose, baseline 45
  BPRS (total, 18 symptoms each rated 1-7): 19
[1]; Patient 2, 1 d after single 12 mg inhaled dose, baseline No
  C-SSRS Suicidal Ideation (any of the suicidal ideation items present): No
[1]; Patient 2, 7 d after single 12 mg inhaled dose
  PGI-I (7-point scale; 1, Very much improved; 2, Much improved; 7, Very much worse): 2
[1]; Patient 2, 7 d after single 12 mg inhaled dose, baseline 1
  MADRS suicidal thoughts item (0 to 6): 0
[1]; Patient 2, 7 d after single 12 mg inhaled dose, baseline 3
  BPRS Tension (1-7): 1
[1]; Patient 2, 7 d after single 12 mg inhaled dose, baseline 4
  BPRS Somatic concern (1-7): 1
[1]; [14]
  BPRS Anxiety (1-7): 1
  BPRS Depressive Mood (1-7): 1
  BPRS Guilt feelings (1-7): 1
  PGI-S (7-point scale; 1, Normal, not at all ill; 7, Extremely ill): 1
[1]; Patient 2, 7 d after single 12 mg inhaled dose, baseline 6
  BPRS Unusual thought content (1-7): 1
[1]; Patient 2, 7 d after single 12 mg inhaled dose, baseline 33
  MADRS (overall score 0 to 60): 5
[1]; Patient 2, 7 d after single 12 mg inhaled dose, baseline 45
  BPRS (total, 18 symptoms each rated 1-7): 18
[1]; Patient 2, 7 d after single 12 mg inhaled dose, baseline No
  C-SSRS Suicidal Ideation (any of the suicidal ideation items present): No
[1]; [15]
  Other general psychiatric symptoms assessed by the BPRS (somatic concern, anxiety, guilt, tension): improved
  Ratings for suicidality (suicidal thoughts item of the MADRS, C-SSRS Suicidal Ideation items): improved
[1]; [16]
  MADRS remission (MADRS total score equal or less than 10): fulfilled standard criteria
  MADRS response (at least 50% improvement from baseline): fulfilled standard criteria
[1]; [17]
  Time to clinical remission after a single administration: ≤ 2 h
  Time to clinical response after administration: ≤ 2 h
[2]; Part A and Part B, 3-hour time point, LLOQ of the 5-MeO-DMT assay 0.014 ng/ml
  5-MeO-DMT plasma levels: reached the lower level of quantification (LLOQ)
[2]; any dose in Part A, 1-hour timepoint
  5-MeO-DMT plasma levels: very low
[3]; Patient 1
  PPE achieved (ASC: at least 60% of the maximum possible score of the Oceanic Boundlessness dimension): Yes
  PPE achieved (MEQ30: at least 60% of the maximum possible score in each of the four subscales): Yes
  PPE achieved (PPEQ Total Score of at least 75): Yes
[3]; Patient 2
  PPE achieved (ASC: at least 60% of the maximum possible score of the Oceanic Boundlessness dimension): No
  PPE achieved (MEQ30: at least 60% of the maximum possible score in each of the four subscales): Yes
  PPE achieved (PPEQ Total Score of at least 75): Yes
[3]; both patients
  Onset of the first psychedelic symptoms after the inhalation: within a few seconds
[4]; Patient 1, single 12 mg inhaled dose, Day 1
  Reported adverse events: Headache, Flashback
[4]; Patient 1, single 12 mg inhaled dose, Day 7
  Reported adverse events: Headache
[4]; Patient 1, single 12 mg inhaled dose, administration day
  Reported adverse events: Dizziness
[4]; Patient 2, single 12 mg inhaled dose, Day 1
  Reported adverse events: Headache
[4]; Patient 2, single 12 mg inhaled dose, Day 7
  Reported adverse events: None reported
[4]; Patient 2, single 12 mg inhaled dose, administration day
  Reported adverse events: None reported
[4]; both patients, ECG at 3 hours, laboratory at 3 hours and 7 days, CADSS at 3 hours, 1 day, 7 days, cognitive tests at 1 day and 7 days
  Assessments of ECG, safety laboratory analyses, CADSS and cognitive tests (PVT, DSST): unremarkable
[4]; both patients, shortly after single 12 mg inhaled dose, no other noteworthy changes
  Changes in vital parameters: temporary, not clinically relevant increase in heart rate and blood pressure
[4]; [17]
  Severity and course of reported adverse events: mild, short-lasting and resolved spontaneously
  Tolerability of the inhalation procedure: well tolerated with no inhalation-related adverse events
[5]
  Self-perceived change of psychiatric symptoms (anxiety, depression, substance use problems, post-traumatic stress disorder): perceived improvements in symptoms
